Assay results taken from patent US4701459A, “7-amino-1,3-dihydro-2H-imidazo[4,5-b]quinolin 2-ones and method for inhibiting phosphodiesterase and blood platelet aggregation” (Bristol-Myers Company, priority 1986, dated 1987).
≈ marks a conversion by molar mass, not a printed value. Like-named read-outs stand apart in the source and are kept apart here.

Experiments:
[1] = tested on: platelet rich plasma (ADP and collagen-induced platelet aggregation); experiment: In Vitro Inhibition of Platelet Aggregation (aggregometer method of Born, ADP- or collagen-induced); assay type: cell-based; details: Oryctolagus cuniculus, rabbit PRP
Text: In Vitro Inhibition of Platelet Aggregation
The aggregometer method of Born (1), as modified by Mustard, et al. (2) was used to assess the in vitro activity of the various compounds as to inhibition of adenosine diphosphate (ADP) and collagen-induced platelet aggregation. Platelet rich plasma (PRP) was separated by centrifugation from citrated (3.8 percent) rabbit blood. […] The various compounds tested were dissovled in dimethylsulfoxide (DMSO) so that 5 mcl added to the platelet rich plasma would yield the desired test concentration. Vehicle control trials were done and compared with aggregation induced in platelet rich plasma containing various concentrations of the test compounds. Dose response curves were obtained and Effective Concentration (EC50) values calculated.

[2] = tested on: platelet rich plasma (induced aggregation); experiment: Inhibition of Platelet Aggregation Following Oral Administration (Ex vivo method); assay type: in vivo; details: Rattus norvegicus, rats, oral (gavage), 2 hours after dosing, vs. ADP
Procedure: Inhibition of Platelet Aggregation Following Oral Administration
This test is sometimes referred to in the art as an Ex vivo method and was initially described by Fleming, et al., Arch. Int. Pharmacodyn. Ther., 199, 164 (1972). Briefly, the assay is essentially carried out as follows.
Aggregometry is performed in vitro as previously described on platelet rich plasma samples obtained from rats dosed with either test compounds or the vehicle. In all cases, activity is determined 2 hours after the drug is administered orally at various doses by gavage as a suspension in […] plus a few drops of Tween 20.

[3] = tested on: ferrets; experiment: Ferret In Vivo Inotropic Activity; details: anesthetized ferrets, monitored 60 minutes; for Maximum Percentage Change, Right Ventricular Contractile Force: percent change from predose control
Procedure: In Vivo Inotropic Activity This test is carried out in ferrets as follows. Fasted anesthetized ferrets are instrumented to study hemodynamic parameters as well as right ventricular contractile force (RVCF) using a Walton-Brodie open strain guage arch. Drugs are administered intraduodenally as solutions in DMSO (1 mL or less) and effects on myocardial contractile force and other parameters are monitored for 60 minutes after dosing. Changes in contractile force in response to drug treatment are expressed in terms of percent change from predose control.

[4] = tested on: cAMP phosphodiesterase (human platelets); experiment: Inhibition of Cyclic AMP Phosphodiesterase; assay type: biochemical; details: PDE from human platelets
Procedure: Inhibition of Cyclic AMP Phosphodiesterase
This assay is carried out essentially as described by Thompson, et al., Methods in Enzymology, 38, 205-212 (1974). Briefly, tritium labeled cyclic adenosine monophosphate (cAMP) is incubated with a phosphodiesterase (PDE) enzynme obtained from human platelets which converts a portion of the cAMP to 5'AMP in culture tubes. This reaction is terminated by submerging the tubes in a boiling water bath after which they are placed on ice and an aliquot of snake venom is added to each tube. This, during a second incubation, converts the 5'AMP to adenosine. Ion exchange resin is added to bind the remaining cyclic AMP. The tubes are centrifuged to sediment the resin and a portion of the clear supernatent (which contains radioactive adenosine) is counted in a liquid scintillation counter. The cAMP phosphodiesterase inhibition activity of a test agent is determined by pre-incubating the PDE enzyme preparation with the test agent.

[5] = vs. ADP (0.5 mcg/ml), read-out: Platelet Inhibition In Vitro - Rabbit PRP EC50 vs. ADP
[6] = vs. collagen, read-out: Platelet Inhibition In Vitro - Rabbit PRP EC50 vs. collagen

Compound	EC50 [1, 5] [µg/mL]	EC50 [1, 6] [µg/mL]	IC50 [4] [nM]	also measured
OCCN(CCO)c1nc(N2CCCCC2)c2nc(N(CCO)CCO)nc(N3CCCCC3)c2n1 [dipyridamole, reference compound]	[…]	[…]		ED50 [2]: > 100 mg/kg
O=c1[nH]c2cc3cc(N4CCCCC4)ccc3nc2[nH]1 [Example 7, 1,3-Dihydro-7-(1-piperidinyl)-2H-imidazo[4,5-b]quinolin-2-one]	1 (≈ 3.73 µM)			Maximum Percentage Change, Blood Pressure ([3]; 0.3 mg/kg intraduodenal): -21 ± 5%; Maximum Percentage Change, Right Ventricular Contractile Force ([3]; 0.3 mg/kg intraduodenal): 14 ± 12%; Maximum Percentage Change, Blood Pressure ([3]; 3 mg/kg intraduodenal): -39 ± 3%; Maximum Percentage Change, Right Ventricular Contractile Force ([3]; 3 mg/kg intraduodenal): 22 ± 8%; ED50 [2]: 20 mg/kg
CCN(CC)c1ccc2nc3[nH]c(=O)[nH]c3cc2c1 [Example 9, 7-(Diethylamino)-1,3-dihydro-2H-imidazo[4,5-b]quinolin-2-one]	0.3 (≈ 1.17 µM)			
Cc1[nH]c(=O)c(C#N)cc1-c1ccncc1 [milrinone, reference compound]				Maximum Percentage Change, Right Ventricular Contractile Force ([3]; 3 mg/kg intraduodenal): 52%
CC(=O)Nc1ccc2nc3[nH]c(=O)[nH]c3cc2c1 [Example 4, N-(2,3-Dihydro-2-oxo-1H-imidazo[4,5-b]quinolin-7-yl)acetamide]	2 (≈ 8.26 µM)	0.8 (≈ 3.3 µM)	700	
COc1ccc(C(=O)N2CCN(c3ccc4nc5[nH]c(=O)[nH]c5cc4c3)CC2)cc1OC [Example 15, 1-(2,3-Dihydro-2-oxo-1H-imidazo[4,5-b]quinolin-7-yl)-4-(3,4-dimethoxybenzoyl)piperazine]	3 (≈ 6.92 µM)	2 (≈ 4.61 µM)		
O=c1[nH]c2cc3cc(N4CCCC4)ccc3nc2[nH]1 [Example 8, 1,3-Dihydro-7-(1-pyrrolidinyl)-2H-imidazo-[4,5-b]quinolin-2-one]		0.4 (≈ 1.57 µM)		
CN(C(=O)C1CCN(c2ccc3nc4[nH]c(=O)[nH]c4cc3c2)CC1)C1CCCCC1 [Example 17, N-Cyclohexyl-1-(2,3-dihydro-2-oxo-1H-imidazo[4,5-b]quinolin-7-yl)-N-methyl-4-piperidinecarboxamide]	1.5 (≈ 3.68 µM)	0.75 (≈ 1.84 µM)		
O=c1[nH]c2cc3cc(N4CCN(c5ccccc5)CC4)ccc3nc2[nH]1 [Example 16, 1,3-Dihydro-7-(4-phenyl-1-piperazinyl)-2H-imidazo[4,5-b]quinolin-2-one]	0.12 (≈ 0.347 µM)	0.025 (≈ 0.0724 µM)		
CCOC(=O)N1CCN(c2ccc3nc4[nH]c(=O)[nH]c4cc3c2)CC1 [Example 13, Ethyl 4-(2,3-Dihydro-2-oxo-1H-imidazo[4,5-b]quinolin-7-yl)-1-piperazinecarboxylate]		0.17 (≈ 0.498 µM)	700	
O=c1[nH]c2cc3cc(N4CCOCC4)ccc3nc2[nH]1 [Example 10, 1,3-Dihydro-7-(4-morpholinyl)-2H-imidazo[4,5-b]quinolin-2-one]	0.03 (≈ 0.111 µM)	0.02 (≈ 0.074 µM)	20	
O=C(Nc1ccc2nc3[nH]c(=O)[nH]c3cc2c1)c1ccccc1 [Example 6, N-(2,3-Dihydro-2-oxo-1H-imidazo[4,5-b]quinolin-7-yl)benzamide]			200	Maximum Percentage Change, Blood Pressure ([3]; 3 mg/kg intraduodenal): -8 ± 6%; Maximum Percentage Change, Right Ventricular Contractile Force ([3]; 3 mg/kg intraduodenal): 9 ± 4%; ED50 [2]: 5.6 mg/kg
O=C(c1ccccc1)N1CCN(c2ccc3nc4[nH]c(=O)[nH]c4cc3c2)CC1 [Example 14, 1-Benzoyl-4-(2,3-dihydro-2-oxo-1H-imidazo[4,5-b]quinolin-7-yl)piperazine]	0.125 (≈ 0.335 µM)		600	
COC(=O)C1CCN(c2ccc3nc4[nH]c(=O)[nH]c4cc3c2)CC1 [Example 11, Methyl 1-(2,3-Dihydro-2-oxo-1H-imidazo[4,5-b]quinolin-7-yl)-4-piperidinecarboxylate]	0.04 (≈ 0.123 µM)	0.012 (≈ 0.0368 µM)		
O=C(O)C1CCN(c2ccc3nc4[nH]c(=O)[nH]c4cc3c2)CC1 [Example 12, 1-(2,3-Dihydro-2-oxo-1H-imidazo[4,5-b]quinolin-7-yl)-4-piperidinecarboxylicAcid]	3.5 (≈ 11.2 µM)	3 (≈ 9.61 µM)	20	
Nc1ccc2nc3[nH]c(=O)[nH]c3cc2c1 [Example 5, 7-Amino-1,3-dihydro-2H-imidazo[4,5-b]quinolin-2-one]		0.4 (≈ 2 µM)		
